The test system of assay [1] is rice calli. Put plainly: Kill curves: tissue survival of rice calli on herbicide media. In kind it is cell-based, Oryza sativa. As to conditions: determined by kill curves and observations of continued culture. The method, then:
Once tissue culture conditions were determined, further establishment of selection conditions were established through the analysis of tissue survival in kill curves with cycloxydim, tepraloxydim, sethoxydim (FIG. 1) or haloxyfop (not shown). Careful consideration of accumulation of the herbicide in the tissue, as well as its persistence and stability in the cells and the culture media was performed. Through these experiments, a sub-lethal dose has been established for the initial selection of mutated material.
After the establishment of the starting dose of sethoxydim, cycloxydim, tepraloxydim, and haloxyfop in selection media, the tissues were selected in a step-wise fashion by increasing the concentration of the ACCase inhibitor with each transfer until cells are recovered that grew vigorously in the presence of toxic doses (see FIG. 2). The resulting calli were further subcultured every 3-4 weeks to R001M with selective agent. Over 26,000 calli were subjected to selection for 4-5 subcultures until the selective pressure was above toxic levels as determined by kill curves and observations of continued culture. Toxic levels were determined to be 50 μM sethoxydim, 20 μM cycloxydim, 2.5 μM tepraloxydim (FIG. 1) and 10 μM haloxyfop (not shown).

In assay [2] the test system is rice plants. The assay is described as follows: Greenhouse spray test of regenerants, rated for herbicide injury. The following applies: 400-1600 g ai/ha, 0.1% methylated seed oil, 1 and 2 weeks after treatment. In kind it is in vivo, Oryza sativa. The method, then: Selected mutants and escapes were transferred to small pots. Wild-type cultivars and 3 biovars of red rice were germinated from seed to serve as controls.
After ca. 3 weeks post-transplant, MO regenerants were sprayed using a track sprayer with 400-1600 g ai/ha cycloxydim (BAS 517H) supplemented with 0.1% methylated seed oil. After the plants had adapted to greenhouse conditions, a subset were sprayed with 800 g ai/ha cycloxydim. Once sprayed, plants were kept on drought conditions for 24 hours before being watered and fertilized again. Sprayed plants were photographed and rated for herbicide injury at 1 (FIG. 3) and 2 weeks after treatment (FIG. 4). […] FIGS. 5-15 provide nucleic acid and/or amino acid sequences of acetyl-Coenzyme A carboxylase enzymes from various plants. FIG. 17 provides a graph showing results for mutant rice versus various ACCase inhibitors.

For assay [3], the system named is ACCase-inhibitor tolerant rice plants. The assay is described as follows: Field treatment of ACCase-inhibitor tolerant rice plants. In kind it is in vivo. The following applies: 600 g/ha treatment, data not shown.

With `CC/C(=N\OC/C=C/Cl)C1=C(O)CC(C2CCOCC2)CC1=O` (stereo not shown) [tepraloxydim], the Toxic levels in assay [1] turned out to be 2.5 µM.
On the same count and under the same terms, as for `CCC/C(=N\OCC)C1=C(O)CC(CC(C)SCC)CC1=O` (stereo not shown) [sethoxydim], the figure is 50 µM.
In turn, `CC(Oc1ccc(Oc2ncc(C(F)(F)F)cc2Cl)cc1)C(=O)O` (stereo not shown) [haloxyfop] showed a Toxic levels in assay [1] of 10 µM.
On to `CCCC(=NOCC)C1=C(O)CC(C2CCCSC2)CC1=O` (stereo not shown) [cycloxydim], for which the herbicide injury result in assay [2] (control plants and tissue culture escapes) is recorded as “heavily damaged”; in assay [2] (plants containing the I1,781 (Am)L heterozygous mutation) it was “No injury”. In assay [3], the “herbicide tolerance phenotypes in the field” value is “exhibited”. This molecule also gave a Toxic levels in assay [1] of 20 µM.
